Experimental data reported in patent publication US9212182B2, “Bicyclic sulfonamide compounds as sodium channel inhibitors” (AMGEN INC., priority 2013, dated 2015).

Target: Nav 1.7 (Homo sapiens (Human), UniProt Q15858)
Assay: in-vitro Nav 1.7 PX (IC50)
Format: cell-based
Settings: not given

Sequence of Nav 1.7 (Q15858 whole entry): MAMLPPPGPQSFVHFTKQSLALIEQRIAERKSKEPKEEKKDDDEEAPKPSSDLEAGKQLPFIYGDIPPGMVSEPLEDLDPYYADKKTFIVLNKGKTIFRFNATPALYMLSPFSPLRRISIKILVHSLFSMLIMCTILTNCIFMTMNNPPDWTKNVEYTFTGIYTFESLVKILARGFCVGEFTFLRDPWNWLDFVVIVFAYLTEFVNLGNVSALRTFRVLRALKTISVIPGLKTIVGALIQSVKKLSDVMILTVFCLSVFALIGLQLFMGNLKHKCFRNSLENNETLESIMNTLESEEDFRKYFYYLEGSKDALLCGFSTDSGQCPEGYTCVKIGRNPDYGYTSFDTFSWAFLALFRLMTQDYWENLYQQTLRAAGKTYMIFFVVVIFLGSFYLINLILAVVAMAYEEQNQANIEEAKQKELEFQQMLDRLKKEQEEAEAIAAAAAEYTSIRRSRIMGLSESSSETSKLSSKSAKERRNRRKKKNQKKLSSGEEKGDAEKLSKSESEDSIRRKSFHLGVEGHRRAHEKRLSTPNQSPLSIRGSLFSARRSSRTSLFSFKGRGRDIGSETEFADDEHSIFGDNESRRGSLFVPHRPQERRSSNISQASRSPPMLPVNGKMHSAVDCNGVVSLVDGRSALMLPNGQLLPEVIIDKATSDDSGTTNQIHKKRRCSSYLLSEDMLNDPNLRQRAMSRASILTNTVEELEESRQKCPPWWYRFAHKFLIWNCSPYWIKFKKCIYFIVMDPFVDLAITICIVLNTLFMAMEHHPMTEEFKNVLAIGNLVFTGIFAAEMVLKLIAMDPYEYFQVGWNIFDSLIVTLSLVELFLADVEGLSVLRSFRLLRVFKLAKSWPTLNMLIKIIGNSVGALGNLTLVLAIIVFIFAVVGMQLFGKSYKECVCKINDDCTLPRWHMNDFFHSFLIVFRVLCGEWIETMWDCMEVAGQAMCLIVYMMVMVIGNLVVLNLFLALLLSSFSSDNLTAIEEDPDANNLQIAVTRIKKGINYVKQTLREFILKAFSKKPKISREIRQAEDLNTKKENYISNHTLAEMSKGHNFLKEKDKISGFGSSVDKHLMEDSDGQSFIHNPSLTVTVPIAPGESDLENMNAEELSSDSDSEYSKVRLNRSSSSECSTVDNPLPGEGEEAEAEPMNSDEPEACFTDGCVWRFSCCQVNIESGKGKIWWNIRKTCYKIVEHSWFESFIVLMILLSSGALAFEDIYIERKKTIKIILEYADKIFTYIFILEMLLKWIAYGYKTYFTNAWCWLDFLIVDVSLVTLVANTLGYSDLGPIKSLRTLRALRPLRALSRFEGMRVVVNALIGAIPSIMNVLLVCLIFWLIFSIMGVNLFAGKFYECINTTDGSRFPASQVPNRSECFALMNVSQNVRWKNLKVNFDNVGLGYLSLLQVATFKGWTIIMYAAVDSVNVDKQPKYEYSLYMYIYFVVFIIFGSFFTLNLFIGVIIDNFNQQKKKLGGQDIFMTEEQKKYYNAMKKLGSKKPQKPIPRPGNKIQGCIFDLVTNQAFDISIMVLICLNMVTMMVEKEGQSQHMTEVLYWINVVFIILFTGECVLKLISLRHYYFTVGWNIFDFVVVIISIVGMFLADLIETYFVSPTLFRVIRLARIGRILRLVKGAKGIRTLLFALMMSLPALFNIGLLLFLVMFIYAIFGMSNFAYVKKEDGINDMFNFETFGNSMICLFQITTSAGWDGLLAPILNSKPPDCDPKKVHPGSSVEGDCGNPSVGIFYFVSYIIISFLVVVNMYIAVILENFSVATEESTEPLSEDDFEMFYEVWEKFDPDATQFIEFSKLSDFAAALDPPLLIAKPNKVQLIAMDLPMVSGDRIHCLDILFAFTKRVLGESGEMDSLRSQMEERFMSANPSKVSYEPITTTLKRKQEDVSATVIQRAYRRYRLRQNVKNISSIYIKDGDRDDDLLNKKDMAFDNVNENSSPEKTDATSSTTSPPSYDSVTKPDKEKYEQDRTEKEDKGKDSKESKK

IC50 [nM]	Structure (SMILES)
94	COc1cc(C#CC2(F)CCCC2)c(F)cc1-n1c(=O)ccc2cc(S(=O)(=O)Nc3cccnn3)ccc21 (atropisomer, axis not shown; (P)) [Example 1238, (P)-1-(5-fluoro-4-((1-fluorocyclopentyl)ethynyl)-2-methoxyphenyl)-2-oxo-N-3-pyridazinyl-1,2-dihydro-6-quinolinesulfonamide]
109	COc1cc(-c2cccc(OC(C)C)c2)ccc1-n1c(=O)ccc2cc(S(=O)(=O)Nc3cccnn3)ccc21 (atropisomer, axis not shown; (P)) [Example 1207, (P)-1-(3-methoxy-3′-(1-methylethoxy)-4-biphenylyl)-2-oxo-N-3-pyridazinyl-1,2-dihydro-6-quinolinesulfonamide]
2450	COc1ccc(-c2cccnc2F)cc1-n1c(=O)ccc2cc(S(=O)(=O)Nc3ccon3)ccc21 [Example 495, 1-(5-(2-fluoro-3-pyridinyl)-2-methoxyphenyl)-N-3-isoxazolyl-2-oxo-1,2-dihydro-6-quinolinesulfonamide]

Same assay, conditions: in-vitro Nav 1.7 PX data

IC50 [nM]	Structure (SMILES)
132	COc1cc(-c2ccc(C#N)cc2)c(F)cc1-n1c(=O)ccc2cc(S(=O)(=O)Nc3ccon3)ccc21 [Example 754, 1-(4′-cyano-2-fluoro-5-methoxy-4-biphenylyl)-N-3-isoxazolyl-2-oxo-1,2-dihydro-6-quinolinesulfonamide]
112	COc1cc(-c2ccc(Cl)cc2)ccc1-n1c(=O)ccc2cc(S(=O)(=O)Nc3cccnn3)ccc21 [Example 765, 1-(4′-chloro-3-methoxy-4-biphenylyl)-2-oxo-N-3-pyridazinyl-1,2-dihydro-6-quinolinesulfonamide]
74	COc1ccc(F)c(-c2cc(OC)c(-n3c(=O)ccc4cc(S(=O)(=O)Nc5ncccn5)ccc43)cc2C)c1 [Example 965, 1-(2′-fluoro-5,5′-dimethoxy-2-methyl-4-biphenylyl)-2-oxo-N-2-pyrimidinyl-1,2-dihydro-6-quinolinesulfonamide]
35	COc1ccc(-c2ccc(C(F)(F)F)cc2)cc1-n1c(=O)ccc2cc(S(=O)(=O)Nc3ccon3)ccc21 [Example 856, N-3-isoxazolyl-1-(4-methoxy-4′-(trifluoromethyl)-3-biphenylyl)-2-oxo-1,2-dihydro-6-quinolinesulfonamide]
155	COc1cc(-c2cccc(C)c2)ccc1-n1c(=O)ccc2cc(S(=O)(=O)Nc3cc(C)ncn3)ccc21 [Example 1131, 1-(3-methoxy-3′-methyl-4-biphenylyl)-N-(6-methyl-4-pyrimidinyl)-2-oxo-1,2-dihydro-6-quinolinesulfonamide]
371	COc1ccc(Br)cc1-n1c(=O)ccc2cc(S(=O)(=O)Nc3ccon3)ccc21 [Example 851, 1-(5-bromo-2-methoxyphenyl)-N-3-isoxazolyl-2-oxo-1,2-dihydro-6-quinolinesulfonamide]
163	COc1ccc(-c2cc(F)ccc2F)cc1-n1c(=O)ccc2cc(S(=O)(=O)Nc3ccon3)ccc21 [Example 840, 1-(2′,5′-difluoro-4-methoxy-3-biphenylyl)-N-3-isoxazolyl-2-oxo-1,2-dihydro-6-quinolinesulfonamide]

Same assay, conditions: in-vitro Nav 1.7 PX data (PatchXpress)

IC50 [nM]	Structure (SMILES)
71	COc1cc(-c2ccc(F)cc2)ccc1-n1c(=O)ccc2cc(S(=O)(=O)Nc3ccon3)ccc21 [Example 1069, 1-(4′-fluoro-3-methoxy-4-biphenylyl)-N-3-isoxazolyl-2-oxo-1,2-dihydro-6-quinolinesulfonamide]

Same assay, conditions: in-vitro PatchXpress (PX)

IC50 [nM]	Structure (SMILES)
85	COc1nc(-c2cc(F)cc(Cl)c2)c(Cl)cc1-n1c(=O)ccc2cc(S(=O)(=O)Nc3ccon3)ccc21 [Example 449, 1-(5-chloro-6-(3-chloro-5-fluorophenyl)-2-methoxypyridin-3-yl)-N-(isoxazol-3-yl)-2-oxo-1,2-dihydroquinoline-6-sulfonamide]
29	COc1cc(-c2ccc(Cl)c(C)c2)ccc1-n1c(=O)ccc2cc(S(=O)(=O)Nc3cccnn3)ccc21 (atropisomer, axis not shown; (M)) [Example 372, (M)-1-(4′-chloro-3-methoxy-3′-methyl-4-biphenylyl)-2-oxo-N-3-pyridazinyl-1,2-dihydro-6-quinolinesulfonamide]
